According to ChEMBL document CHEMBL5154648, “Antitumor activity of novel POLA1-HDAC11 dual inhibitors” (Eur J Med Chem, 2022):
Active and inactive are the calls of the source. No cut-off for these calls is given here.

Tests used:
[1] = tested on: A2780; experiment: Antiproliferative activity against human A2780 cells incubated for 24 hrs followed by incubating in drug-free medium for 48 hrs and measured by SRB assay; format: functional, cell-based
[2] = Antiproliferative activity against human MM432 cells incubated for 24 hrs followed by incubating in drug-free medium for 48 hrs and measured by SRB assay; format: functional, cell-based
[3] = Antiproliferative activity against multi-drug resistant human A2780-DX cells incubated for 24 hrs followed by incubating in drug-free medium for 48 hrs and measured by SRB assay; format: functional, cell-based
[4] = Antiproliferative activity against human H460-R9A cells incubated for 24 hrs followed by incubating in drug-free medium for 48 hrs and measured by SRB assay; format: functional, cell-based
[5] = tested on: L-428; experiment: Antiproliferative activity against human L-428 cells incubated for 24 hrs followed by incubating in drug-free medium for 48 hrs and measured by SRB assay; format: functional, cell-based
[6] = tested on: MM473; experiment: Antiproliferative activity against human MM473 cells incubated for 24 hrs followed by incubating in drug-free medium for 48 hrs and measured by SRB assay; format: functional, cell-based
[7] = target: T1, Histone deacetylase 11 (Homo sapiens, UniProt Q96DB2); experiment: Inhibition of HDAC11 (unknown origin) using fluorogenic peptide 382 RHKK(Ac)AM as substrate and measured by fluorescence assay
T1 sequence (Q96DB2 whole entry): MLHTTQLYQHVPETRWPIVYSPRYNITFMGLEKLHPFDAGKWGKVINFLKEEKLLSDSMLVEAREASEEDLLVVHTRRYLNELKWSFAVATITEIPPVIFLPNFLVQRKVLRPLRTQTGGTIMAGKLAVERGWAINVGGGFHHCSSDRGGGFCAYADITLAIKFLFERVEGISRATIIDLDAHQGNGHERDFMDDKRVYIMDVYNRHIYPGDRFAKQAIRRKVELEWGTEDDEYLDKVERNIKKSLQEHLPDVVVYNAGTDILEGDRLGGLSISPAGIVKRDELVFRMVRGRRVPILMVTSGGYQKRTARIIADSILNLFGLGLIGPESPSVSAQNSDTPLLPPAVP

[8] = Resistance index, ratio of IC50 for human NCI-H460 cells to IC50 for H460-R9A cells; format: functional
[9] = Antiproliferative activity against human U-87 MG cells incubated for 24 hrs followed by incubating in drug-free medium for 48 hrs and measured by SRB assay; format: functional, cell-based, U-87MG ATCC
[10] = Resistance index, ratio of IC50 for human A2780 cells to IC50 for A2780-DX cells; format: functional
[11] = tested on: NCI-H460; experiment: Antiproliferative activity against human NCI-H460 cells incubated for 24 hrs followed by incubating in drug-free medium for 48 hrs and measured by SRB assay; format: functional, cell-based
[12] = tested on: Ramos; experiment: Antiproliferative activity against human Ramos cells incubated for 24 hrs followed by incubating in drug-free medium for 48 hrs and measured by SRB assay; format: functional, cell-based
[13] = tested on: MDA-MB-436; experiment: Antiproliferative activity against human MDA-MB-436 cells incubated for 24 hrs followed by incubating in drug-free medium for 48 hrs and measured by SRB assay; format: functional, cell-based
[14] = target: T2, DNA polymerase alpha catalytic subunit (Homo sapiens) (UniProt P09884); experiment: Inhibition of POLA1 in human NCI-H460 cells at 0.1 to 0.4 uM assessed as upregulation of p21 expression and measured by Western blot analysis; format: cell-based; settings: dose 0.1-0.4 µM
T2 sequence (whole entry): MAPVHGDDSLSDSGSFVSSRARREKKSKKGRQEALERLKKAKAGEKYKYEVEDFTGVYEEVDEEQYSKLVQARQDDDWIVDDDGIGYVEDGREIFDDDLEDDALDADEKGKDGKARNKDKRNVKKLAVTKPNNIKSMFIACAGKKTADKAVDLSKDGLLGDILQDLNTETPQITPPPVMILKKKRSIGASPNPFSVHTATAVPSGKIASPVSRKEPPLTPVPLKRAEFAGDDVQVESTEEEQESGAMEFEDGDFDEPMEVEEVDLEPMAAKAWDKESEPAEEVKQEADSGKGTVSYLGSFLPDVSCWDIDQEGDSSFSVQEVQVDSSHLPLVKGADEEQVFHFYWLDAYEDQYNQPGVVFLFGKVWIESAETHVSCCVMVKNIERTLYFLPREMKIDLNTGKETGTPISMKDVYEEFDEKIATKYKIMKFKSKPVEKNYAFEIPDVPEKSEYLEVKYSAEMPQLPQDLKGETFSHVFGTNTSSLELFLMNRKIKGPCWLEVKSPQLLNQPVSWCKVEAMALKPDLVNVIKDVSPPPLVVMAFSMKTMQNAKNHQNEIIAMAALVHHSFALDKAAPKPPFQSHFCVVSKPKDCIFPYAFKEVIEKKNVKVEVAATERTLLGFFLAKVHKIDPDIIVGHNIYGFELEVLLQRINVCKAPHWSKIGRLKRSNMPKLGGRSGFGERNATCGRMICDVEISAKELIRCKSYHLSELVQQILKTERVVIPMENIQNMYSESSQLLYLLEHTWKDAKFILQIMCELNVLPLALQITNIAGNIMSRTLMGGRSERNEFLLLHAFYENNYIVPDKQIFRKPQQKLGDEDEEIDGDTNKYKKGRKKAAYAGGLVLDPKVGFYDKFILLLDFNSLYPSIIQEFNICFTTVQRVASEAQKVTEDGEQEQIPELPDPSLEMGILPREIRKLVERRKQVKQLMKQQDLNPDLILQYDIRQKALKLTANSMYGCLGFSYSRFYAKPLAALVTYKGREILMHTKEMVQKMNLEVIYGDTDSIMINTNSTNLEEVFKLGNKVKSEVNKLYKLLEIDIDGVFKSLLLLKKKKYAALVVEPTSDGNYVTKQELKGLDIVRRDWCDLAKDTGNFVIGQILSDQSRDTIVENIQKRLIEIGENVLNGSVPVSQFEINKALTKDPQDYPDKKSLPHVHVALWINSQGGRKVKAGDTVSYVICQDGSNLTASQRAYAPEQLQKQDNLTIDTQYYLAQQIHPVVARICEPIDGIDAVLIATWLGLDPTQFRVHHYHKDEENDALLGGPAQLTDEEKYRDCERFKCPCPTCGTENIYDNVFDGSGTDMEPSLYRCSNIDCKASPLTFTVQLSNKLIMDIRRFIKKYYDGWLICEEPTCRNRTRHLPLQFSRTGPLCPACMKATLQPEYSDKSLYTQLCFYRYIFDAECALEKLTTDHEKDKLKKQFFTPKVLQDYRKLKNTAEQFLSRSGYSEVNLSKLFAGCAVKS

[15] = tested on: Z-138; experiment: Antiproliferative activity against human Z138 cells incubated for 24 hrs followed by incubating in drug-free medium for 48 hrs and measured by SRB assay; format: functional, cell-based
[16] = Antiproliferative activity against human MM487 cells incubated for 24 hrs followed by incubating in drug-free medium for 48 hrs and measured by SRB assay; format: functional, cell-based
[17] = tested on: U2932; experiment: Antiproliferative activity against human U2932 cells incubated for 24 hrs followed by incubating in drug-free medium for 48 hrs and measured by SRB assay; format: functional, cell-based
[18] = tested on: THP-1; experiment: Antiproliferative activity against human THP-1 cells incubated for 24 hrs followed by incubating in drug-free medium for 48 hrs and measured by SRB assay; format: functional, cell-based
[19] = tested on: NB-4; experiment: Antiproliferative activity against human NB-4 cells incubated for 24 hrs followed by incubating in drug-free medium for 48 hrs and measured by SRB assay; format: functional, cell-based

Row | IC50 [1] | IC50 [7] | IC50 [11] | IC50 [12] | IC50 [13] | inhibition [14] | IC50 [18] | SMILES | IC50 [2] | IC50 [3] | IC50 [4] | IC50 [5] | IC50 [6] | Ratio IC50 [8] | IC50 [9] | Ratio IC50 [10] | IC50 [15] | IC50 [16] | IC50 [17] | IC50 [19]
1 | 600 nM | 6090 nM | 250 nM | 710 nM | 640 nM | Active | 420 nM | O=C(O)C=Cc1ccc(-c2ccc(OCC(=O)NO)c(C34CC5CC(CC(C5)C3)C4)c2)cc1 | 900 nM | 410 nM | 2800 nM | 2100 nM | 12000 nM | 11.2 | 1100 nM | 0.7 | 38 nM | 22000 nM | 520 nM | 180 nM
2 | 950 nM | 8230 nM | 260 nM | 1200 nM | 770 nM | Active | 520 nM | CC(Oc1ccc(-c2ccc(C=CC(=O)O)cc2)cc1C12CC3CC(CC(C3)C1)C2)C(=O)NO (configuration not stated) | 1400 nM | 660 nM | 2200 nM | 3200 nM | 1400 nM | 8.5 | 1000 nM | 0.7 | 160 nM | 730 nM | 770 nM | 230 nM
3 | 98 nM | > 10000 nM | 120 nM | 290 nM | 550 nM | Active | 150 nM | O=C(O)C=Cc1ccc(-c2ccc(O)c(C34CC5CC(CC(C5)C3)C4)c2)cc1 | 430 nM | 170 nM | 8400 nM | 450 nM | 600 nM | 70 | 530 nM | 1.7 | 26 nM | 100 nM | 77 nM | 100 nM
